# Tests used:
# Format in all cases: in vivo
# [1] = test system: green peach aphid (Myzus persicae); experiment: Myzus test; oral (MYZUPE O); conditions: 100 ppm, oral (sucking at the preparation)
# Protocol: Myzus Test; Oral; (MYZUPE O)
# Solvent: 80 parts by weight of acetone
# To produce a suitable preparation of active compound, 1 part by weight of active compound is mixed with the stated amounts of solvent and emulsifier, and the concentrate is diluted with water to the desired concentration.
# Containers are populated with all stages of the green peach aphid (Myzus persicae), the treatment is by sucking at the preparation of active compound of the desired concentration.
# (§1) After the desired period of time, the effect in % is determined. 100% means that all aphids have been killed; 0% means that none of the aphids have been killed.
# (§2) In this test, for example, the following compounds of the Preparation Examples show good activity: see table
# [2] = test system: green peach aphid (Myzus persicae); experiment: Myzus test (MYZUPE spray treatment); conditions: spray on infested Chinese cabbage discs; for pest or weed control at 500 g/ha: Myzus persicae, in Brassica rapa, 120 h, after 5 days, read-out: Kill rate in % after 5 days; for Kill rate in % after 5 days: 500 g/ha
# Protocol: Myzus Test (MYZUPE Spray Treatment)
# (§3) Solvents: 78 parts by weight of acetone • • 1.5 parts by weight of dimethylformamide
# (§4) Emulsifier: 0.5 part by weight of alkylaryl polyglycol ether
# (§5) To produce a suitable preparation of active compound, 1 part by weight of active compound is mixed with the stated amounts of solvents and emulsifier, and the concentrate is diluted with emulsifier-containing water to the desired concentration.
# Discs of Chinese cabbage (Brassica pekinensis) which are infested by all stages of the green peach aphid (Myzus persicae) are sprayed with a preparation of active compound of the desired concentration.
# as §1
# On this test, for example, the following compounds of the Preparation Examples show good activity: see table
# [3] = test system: greenhouse red spider mite (Tetranychus urticae); experiment: Tetranychus test, OP-resistant (TETRUR spray treatment); conditions: 500 g/ha, sprayed bean leaf discs
# Protocol: Tetranychus Test, OP-Resistant (TETRUR Spray Treatment)
# as §3, §4, §5
# Discs of bean leaves (Phaseolus vulgaris) which are infested by all stages of the greenhouse red spider mite (Tetranychus urticae) are sprayed with a preparation of active compound of the desired concentration.
# After the desired period of time, the effect in % is determined. 100% means that all spider mites have been killed; 0% means that none of the spider mites have been killed.
# (§6) In this test, for example, the following compounds of the Preparation Examples show good activity: see table.
# [4] = test system: larvae of the mustard beetle (Phaedon cochleariae); experiment: Phaedon cochleariae test (PHAECO spray treatment); conditions: 500 g/ha, sprayed Chinese cabbage discs
# Protocol: Phaedon cochleariae Test (PHAECO Spray Treatment)
# as §3, §4, §5
# After the desired period of time, the effect in % is determined. 100% means that all beetle larvae have been killed; 0% means that none of the beetle larvae have been killed.
# as §2
# [5] = test system: cotton aphid (Aphis gossypii); experiment: Aphis gossypii test (APHIGO), spraying; conditions: 12 g/ha, cotton leaves sprayed
# Protocol: (§7) Aphis gossypii Test (APHIGO)
# (§8) Solvent: 7 parts by weight of dimethylformamide
# Emulsifier: 1 part by weight of alkylaryl polyglycol ether
# (§9) To produce a suitable preparation of active compound, 1 part by weight of active compound is mixed with the stated amounts of solvent and emulsifier, and the concentrate is diluted with emulsifier-containing water to the desired concentration.
# Cotton leaves (Gossypium hirsutum) which are heavily infested by the cotton aphid (Aphis gossypii) are treated by spraying with the preparation of active compound at the stated concentration.
# After the desired period of time, the kill in % is determined. 100% means that all animals have been killed; 0% means that none of the animals have been killed.
# as §2
# [6] = test system: Lucilia cuprina larvae; experiment: Lucilia cuprina test (LUCICU); conditions: 100 ppm, treated horse meat
# Protocol: Lucilia cuprina Test (LUCICU)
# Solvent: dimethyl sulphoxide
# To produce a suitable preparation of active compound, 1 part by weight of active compound is mixed with the stated amount of water and the concentrate is diluted with water to the desired concentration.
# Containers containing horse meat treated with the preparation of active compound of the desired concentration are populated with Lucilia cuprina larvae.
# After the desired period of time, the kill in % is determined. 100% means that all larvae have been killed; 0% means that none of the larvae have been killed.
# as §6
# [7] = test system: caterpillars of the armyworm (Spodoptera frugiperda); experiment: Spodoptera frugiperda test (SPODFR spray treatment); conditions: 500 g/ha, sprayed maize leaf discs
# Protocol: Spodoptera frugiperda Test (SPODFR Spray Treatment)
# as §3, §4, §5
# Discs of maize leaves (Zea mays) are sprayed with a preparation of active compound of the desired concentration and, after drying, populated with caterpillars of the armyworm (Spodoptera frugiperda).
# After the desired period of time, the effect in % is determined. 100% means that all caterpillars have been killed; 0% means that none of the caterpillars have been killed.
# as §2
# [8] = test system: cotton aphid (Aphis gossypii); experiment: Aphis gossypii test (APHIGO), leaf dipping; conditions: cotton leaves dipped
# Protocol: as §7
# Solvent: 7 parts by weight of dimethylformrnamide
# (§10) Emulsifier: 2 parts by weight of alkylaryl polyglycol ether
# as §9
# Cotton leaves (Gossypium hirsutum) which are heavily infested by the cotton aphid (Aphis gossypii) are treated by being dipped into the preparation of active compound of the desired concentration.
# (§11) After the desired period of time, the kill in % is determined. 100% means that all aphids have been killed; 0% means that none of the aphids have been killed.
# as §6
# [9] = test system: green peach aphid (Myzus persicae); experiment: Myzus persicae test, hydroponic treatment (MYZUPE sys.); conditions: 20 ppm, hydroponic treatment of pea plant
# Protocol: Myzus persicae Test, Hydroponic Treatment (MYZUPE sys.)
# as §8, §10, §9
# The preparation of active compound is mixed with water. The stated concentration refers to the amount of active compound per volume unit of […] (mg/l=ppm). The treated water is filled into containers housing a pea plant (Pisum sativum) which is then infected with the green peach aphid (Myzus persicae).
# as §11, §6
structure (smiles),measurement,setting,value
"CC1CC2OC(=O)C=C2N(Cc2ccc(Cl)nc2)C1 (single isomer, unassigned) [Example I-12a, 4-[(6-Chloropyridin-3-yl)methyl]-6-methyl-5,6,7,7a-tetrahydrofuro[3,2-b]-pyridin-2(4H)-on]",Kill rate in % after 5 days,[1],100%
same,pest or weed control at 500 g/ha,[2],100%
"CC1CC2OC(=O)C=C2N(Cc2ccc(Cl)nc2)C1 (single isomer, unassigned) [Example I-12b, 4-[(6-Chloropyridin-3-yl)methyl]-6-methyl-5,6,7,7a-tetrahydrofuro[3,2-b]-pyridin-2(4H)-on]",Kill rate in % after 6 days,[3],90%
same,Kill rate in % after 5 days,[1],100%
same,Kill rate in % after 5 days,[2],100%
"O=C1C=C2C(CC(Cl)CN2Cc2ccc(Cl)nc2)O1 (single isomer, unassigned) [Example I-17a, 4-[(6-Chloropyridin-3-yl)methyl]-6-chloro-5,6,7,7a-tetrahydrofuro[3,2-b]-pyridin-2(4H)-one]",Kill rate in % after 7 days,[4],100%
same,pest or weed control at 500 g/ha,[2],100%
"O=C1C=C2C(CC(Cl)CN2Cc2ccc(Cl)nc2)O1 (single isomer, unassigned) [Example I-17b, 4-[(6-Chloropyridin-3-yl)methyl]-6-chloro-5,6,7,7a-tetrahydrofuro[3,2-b]-pyridin-2(4H)-one]",Kill rate in % after 5 days,[2],90%
"O=C1C=C2C(OCCN2Cc2ccc(Cl)nc2)O1 (stereo not shown) [Example I-1, 1-[(6-Chloropyridin-3-yl)methyl]-2,3-dihydro-1H-furo[2,3-b][1,4]oxazin-6(4aH)-one]",Kill rate in % after 5 days,[1],100%
same,pest or weed control at 500 g/ha,[2],100%
"O=C1C=C2C(CCCN2Cc2ccc(Cl)nc2)O1 (stereo not shown) [Example I-2, 4-[(6-Chloropyridin-3-yl)methyl]-5,6,7,7a-tetrahydrofuro[3,2-b]pyridin-2(4H)-one]",Kill rate in % after 7 days,[5],85%
same,Kill rate in % after 2 days,[6],100%
same,Kill rate in % after 7 days,[7],100%
same,Kill rate in % after 6 days,[8]; 20 ppm,95%
same,Kill rate in % after 6 days,[9],100%
same,pest or weed control at 500 g/ha,[2],100%
O=C1C=C2[C@@H](CCCN2Cc2ccc(Cl)nc2)O1 [Example I-3],Kill rate in % after 7 days,[7],100%
same,Kill rate in % after 7 days,[4],100%
same,pest or weed control at 500 g/ha,[2],100%
O=C1C=C2[C@H](CCCN2Cc2ccc(Cl)nc2)O1 [Example I-4],Kill rate in % after 7 days,[4],100%
same,pest or weed control at 500 g/ha,[2],100%
"O=C1C=C2C(CC=CCN2Cc2ccc(Cl)nc2)O1 (stereo not shown) [Example I-6, 4-[(6-Chloropyridin-3-yl)methyl]-4,5,8,8a-tetrahydro-2H-furo[3,2-b]azepin-2-one]",Kill rate in % after 2 days,[6],100%
same,pest or weed control at 500 g/ha,[2],100%
"O=C1C=C2C(CCCCN2Cc2ccc(Cl)nc2)O1 (stereo not shown) [Example I-7, 4-[(6-Chloropyridin-3-yl)methyl]-4,5,6,7,8,8a-hexahydro-2H-furo[3,2-b]-azepin-2-one]",Kill rate in % after 6 days,[8]; 100 ppm,95%
same,Kill rate in % after 6 days,[9],100%
same,pest or weed control at 500 g/ha,[2],100%
O=C1OC2COCN(Cc3ccc(Cl)nc3)C2=C1Cl (stereo not shown) [Example I-8],pest or weed control at 500 g/ha,[2],100%
O=C1OC2CCCN(Cc3ccc(Cl)nc3)C2=C1Cl (stereo not shown) [Example I-9],Kill rate in % after 2 days,[6],80%
same,Kill rate in % after 6 days,[8]; 100 ppm,90%
same,Kill rate in % after 6 days,[9],100%
same,pest or weed control at 500 g/ha,[2],100%
"CC12CCCN(Cc3ccc(Cl)nc3)C1=CC(=O)O2 (stereo not shown) [Example I-10, 4-[(6-Chloropyridin-3-yl]methyl]-7a-methyl-5,6,7,7a-tetrahydrofuro[3,2-b]-pyridin-2(4H)-one]",pest or weed control at 500 g/ha,[2],100%
"O=CC1=C2C(CCCN2Cc2ccc(Cl)nc2)OC1=O (stereo not shown) [Example I-11, 3-Formyl-4-[(6-chloropyridin-3-yl)methyl]-5,6,7,7a-tetrahydrofuro [3,2-b]-pyridin-2(4H)-one]",pest or weed control at 500 g/ha,[2],100%
O=C1CC2OC(=O)C=C2N(Cc2ccc(Cl)nc2)C1 (stereo not shown) [Example I-14],Kill rate in % after 5 days,[1],100%
same,pest or weed control at 500 g/ha,[2],100%
O=C1C=C2C(CC(F)(F)CN2Cc2ccc(Cl)nc2)O1 (stereo not shown) [Example I-15],pest or weed control at 500 g/ha,[2],100%
"O=C1C=C2C(CC=CN2Cc2ccc(Cl)nc2)O1 (stereo not shown) [Example I-18, 4-[(6-Chloropyridin-3-yl)methyl]-7,7a-dihydrofuro[3,2-b]pyridin-2(4H)-one]",pest or weed control at 500 g/ha,[2],100%
O=C1C=C2C(O1)C(O)CCN2Cc1ccc(Cl)nc1 (stereo not shown) [Example I-19],pest or weed control at 500 g/ha,[2],100%
"O=C1C=C2C(=CCCN2Cc2ccc(Cl)nc2)O1 [Example I-20, 4-[(6-Chloropyridin-3-yl)methyl]-5,6-dihydrofuro[3,2-b]pyridin-2(4H)-one]",Kill rate in % after 7 days,[4],100%
same,pest or weed control at 500 g/ha,[2],100%

# From patent publication US7951951B2, “Bicyclic enamino(thio)carbonyl compounds” (Bayer Cropscience AG, priority 2006, dated 2011)
